In test [1] the target is T1, Prostate-specific antigen (Homo sapiens) (UniProt P07288).
T1 sequence (whole entry): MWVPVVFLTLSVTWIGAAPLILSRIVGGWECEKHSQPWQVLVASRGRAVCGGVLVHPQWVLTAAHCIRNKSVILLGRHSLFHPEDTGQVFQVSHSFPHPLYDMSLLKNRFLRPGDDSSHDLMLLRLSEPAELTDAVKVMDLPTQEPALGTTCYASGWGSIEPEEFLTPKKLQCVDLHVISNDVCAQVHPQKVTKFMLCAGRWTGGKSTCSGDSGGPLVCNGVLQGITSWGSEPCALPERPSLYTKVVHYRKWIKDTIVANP
In words: Stimulation of KLK3 (unknown origin) using S-2586 as substrate at 14 uM after 30 mins by spectrophotometric assay relative to control.

Test [2] addresses T1, Prostate-specific antigen (Homo sapiens). The test can be described thus: Stimulation of KLK3 (unknown origin) relative to control.

Bridge positions count the residues as written; N and C are the ends. Square brackets hold non-standard residues; d marks the D form. Peptide text beside a SMILES is read from it. Asu = N[C@@H](CCCCCC(=O)O)C(=O)O; AllylGly = C=CC[C@H](N)C(=O)O; GABA = NCCCC(=O)O

Consider `CC(C)C[C@@H]1NC(=O)[C@H](Cc2ccc(O)cc2)NC(=O)[C@H](CC(=O)O)NC(=O)[C@H](Cc2ccc(O)cc2)NC(=O)[C@H](CC(N)=O)NC(=O)[C@H](Cc2cnc[nH]2)NC(=O)[C@H](C)NC(=O)[C@H](Cc2ccccc2)NC(=O)[C@H](C(C)C)NC(=O)CC/C=C/C[C@@H](C(=O)O)NC(=O)[C@H](C(C)C)NC1=O`, for which the Activity in test [1] was 160%. Still for that read-out and setting: next, `CC(C)C[C@@H]1NC(=O)[C@H](Cc2ccc(O)cc2)NC(=O)[C@H](CC(=O)O)NC(=O)[C@H](Cc2ccc(O)cc2)NC(=O)[C@H](CC(N)=O)NC(=O)[C@H](Cc2cnc[nH]2)NC(=O)[C@H](C)NC(=O)[C@H](Cc2ccccc2)NC(=O)[C@H](C(C)C)NC(=O)[C@@H](N)CCCC[C@@H](C(=O)O)NC(=O)[C@H](C(C)C)NC1=O`: 250%; `CC(C)C[C@@H]1NC(=O)[C@H](Cc2ccc(O)cc2)NC(=O)[C@H](CC(=O)O)NC(=O)[C@H](Cc2ccc(O)cc2)NC(=O)[C@H](CC(N)=O)NC(=O)[C@H](Cc2cnc[nH]2)NC(=O)[C@H](C)NC(=O)[C@H](Cc2ccccc2)NC(=O)[C@H](C(C)C)NC(=O)[C@@H](N)CSSC[C@@H](C(N)=O)NC(=O)[C@H](C(C)C)NC1=O` (H-CVFAHNYDYLVC-NH2; disulfide 1-12): 360%; `CC(C)C[C@@H]1NC(=O)[C@H](Cc2ccc(O)cc2)NC(=O)[C@H](CC(=O)O)NC(=O)[C@H](Cc2ccc(O)cc2)NC(=O)[C@H](CC(N)=O)NC(=O)[C@H](Cc2cnc[nH]2)NC(=O)[C@H](C)NC(=O)[C@H](Cc2ccccc2)NC(=O)[C@H](C(C)C)NC(=O)[C@@H](N)C/C=C/C[C@@H](C(=O)O)NC(=O)[C@H](C(C)C)NC1=O` (H-[AllylGly]VFAHNYDYLV[AllylGly]-OH; staple (E) 1-12): 160%. `CC(C)C[C@@H]1NC(=O)[C@H](Cc2ccc(O)cc2)NC(=O)[C@H](CC(=O)O)NC(=O)[C@H](Cc2ccc(O)cc2)NC(=O)[C@H](CC(N)=O)NC(=O)[C@H](Cc2cnc[nH]2)NC(=O)[C@H](C)NC(=O)[C@H](Cc2ccccc2)NC(=O)[C@H](C(C)C)NC(=O)CCCCC[C@@H](C(=O)O)NC(=O)[C@H](C(C)C)NC1=O` (VFAHNYDYLV[Asu]-OH; lactam N-11): in test [1], the Activity was 170%. In test [2], `CC(C)C[C@@H]1NC(=O)[C@H](Cc2ccc(O)cc2)NC(=O)[C@H](CC(=O)O)NC(=O)[C@H](Cc2ccc(O)cc2)NC(=O)[C@H](CC(N)=O)NC(=O)[C@H](Cc2cnc[nH]2)NC(=O)[C@H](C)NC(=O)[C@H](Cc2ccccc2)NC(=O)[C@H](C(C)C)NC(=O)CCCNC(=O)[C@H](CC(=O)O)NC(=O)[C@H](C(C)C)NC1=O` (cyclo(AHNYDYLVD[GABA]VF)) had an Activity of 250%.

The values are drawn from ChEMBL document CHEMBL3108718, “Replacement of the Disulfide Bridge in a KLK3-Stimulating Peptide Using Orthogonally Protected Building Blocks” (ACS Med Chem Lett, 2014).
